Active and inactive are the calls of the source. No cut-off for these calls is given here.
Tests used:
[1] = target: T1, Amine oxidase [flavin-containing] B (Homo sapiens, UniProt P27338); conditions: 0.5 h, time 30 min
T1 sequence (P27338 whole entry): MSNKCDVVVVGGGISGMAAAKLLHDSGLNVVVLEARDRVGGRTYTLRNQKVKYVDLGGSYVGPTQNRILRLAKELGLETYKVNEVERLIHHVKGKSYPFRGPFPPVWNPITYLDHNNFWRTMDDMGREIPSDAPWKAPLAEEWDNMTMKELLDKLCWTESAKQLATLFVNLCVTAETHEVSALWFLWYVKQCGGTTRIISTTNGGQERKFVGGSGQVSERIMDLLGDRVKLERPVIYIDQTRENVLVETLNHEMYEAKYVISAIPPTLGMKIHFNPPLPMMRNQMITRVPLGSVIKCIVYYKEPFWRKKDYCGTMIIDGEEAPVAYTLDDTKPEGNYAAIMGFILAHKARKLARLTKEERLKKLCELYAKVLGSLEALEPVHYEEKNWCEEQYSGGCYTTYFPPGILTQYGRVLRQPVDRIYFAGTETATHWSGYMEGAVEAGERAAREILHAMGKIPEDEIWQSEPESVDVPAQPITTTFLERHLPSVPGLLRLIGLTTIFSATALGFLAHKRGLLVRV

Rattus norvegicus = assay: Antialzheimer activity against scopolamine-induced cognitive impairment in Sprague-Dawley rat assessed as reduction in short-term memory deficits at 1 to 3 mg/kg, ip administered for 30 mins followed by scopolamine induction measured after 30 mins by NOR test; assay type: functional, organism-based; conditions: dose 1-3 mg/kg, time 60.0 min

inhibition at 1 µM [1] [%]	Compound	Activity (Rattus norvegicus)
3	Clc1cccc(CNc2ccnc(N3CCNCC3)c2)c1	
7	Clc1cccc(CNc2cc(N3CCNCC3)nc3ccccc23)c1	
	COc1cc2c(cc1OC)C(=O)C(CC1CCN(Cc3ccccc3)CC1)C2 (stereo not drawn)	Active
